Results: ChEMBL document CHEMBL1140559, “Synthesis and cytotoxic activity of various 5-[alkoxy-(4-nitro-phenyl)-methyl]-uracils in their racemic form” (Bioorg Med Chem Lett, 2007)
Active and inactive are the calls of the source. The calls are words filed in the database; no cut-off is given here.

Tests used:
Type in all cases: functional, cell-based
Settings in all cases: Homo sapiens
K562-Tax = experiment: Cytotoxicity against p-glycoprotein positive K562-Tax cells
CCRF-CEM [1] = experiment: Cytotoxicity against lung resistance protein positive CEM cells
CCRF-CEM [2] = experiment: Inhibition of DNA synthesis in CEM cells at 5 times IC50
CCRF-CEM [3] = experiment: Increase in RNA synthesis in CEM cells at IC50
CCRF-CEM [4] = experiment: Inhibition of DNA synthesis in CEM cells at IC50
CCRF-CEM [5] = experiment: Inhibition of RNA synthesis in CEM cells at IC50
CCRF-CEM [6] = experiment: Induction of apoptosis in CEM cells at IC50 after 24 hrs […]

CCCCCCCCCOC(c1ccc([N+](=O)[O-])cc1)c1c[nH]c(=O)[nH]c1=O (stereo not given)
Activity (K562-Tax): Active | Activity (CCRF-CEM [1]): Active

CCCCCCCCOC(c1ccc([N+](=O)[O-])cc1)c1c[nH]c(=O)[nH]c1=O (stereo not given)
Activity (K562-Tax): Active | Activity (CCRF-CEM [2]): Active | Activity (CCRF-CEM [3]): Active | Activity (CCRF-CEM [1]): Active

CCCCCCCCCCOC(c1ccc([N+](=O)[O-])cc1)c1c[nH]c(=O)[nH]c1=O (stereo not given)
Activity (K562-Tax): Active | Activity (CCRF-CEM [1]): Active

CCCCCCOC(c1ccc([N+](=O)[O-])cc1)c1c[nH]c(=O)[nH]c1=O (stereo not given)
Activity (CCRF-CEM [2]): Active | Activity (CCRF-CEM [4]): Active | Activity (CCRF-CEM [5]): Active | Activity (CCRF-CEM [6]): Active

CCCCCCCCCCCOC(c1ccc([N+](=O)[O-])cc1)c1c[nH]c(=O)[nH]c1=O (stereo not given)
Activity (K562-Tax): Active | Activity (CCRF-CEM [1]): Active

CCCCCCCCCCCCOC(c1ccc([N+](=O)[O-])cc1)c1c[nH]c(=O)[nH]c1=O (stereo not given)
Activity (K562-Tax): Active | Activity (CCRF-CEM [1]): Active

CCCCCCCOC(c1ccc([N+](=O)[O-])cc1)c1c[nH]c(=O)[nH]c1=O (stereo not given)
Activity (K562-Tax): Active | Activity (CCRF-CEM [2]): Active | Activity (CCRF-CEM [3]): Active | Activity (CCRF-CEM [1]): Active
